# According to PubChem BioAssay (NCI):
#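 In this assay, cells in 96-well plates receive the compound at five concentrations for 48 hours. Endpoints are linearly interpolated between the surrounding concentrations. Abbreviation: GI50, concentration required for 50% inhibition of growth. TGI: total growth inhibition.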
# Columns and labels:
# Assay in all cases: NCI tumour cell line growth inhibition, 48 h
# HCC-2998 colon = system: HCC-2998 colon
# UACC-62 melanoma = system: UACC-62 melanoma
# SR leukemia = system: SR leukemia
# KM12 colon = system: KM12 colon
# ACHN renal = system: ACHN renal
# NCI-H23 lung = system: NCI-H23 lung
# NCI-H522 lung = system: NCI-H522 lung
# EKVX NSCLC = system: EKVX NSCLC
# MOLT-4 leukemia = system: MOLT-4 leukemia
# CCRF-CEM leukemia = system: CCRF-CEM leukemia
Structure (SMILES),GI50 (HCC-2998 colon),TGI (HCC-2998 colon),GI50 (UACC-62 melanoma),TGI (UACC-62 melanoma),GI50 (SR leukemia),TGI (SR leukemia),GI50 (KM12 colon),TGI (KM12 colon),GI50 (ACHN renal),TGI (ACHN renal),GI50 (NCI-H23 lung),TGI (NCI-H23 lung),GI50 (NCI-H522 lung),TGI (NCI-H522 lung),GI50 (EKVX NSCLC),TGI (EKVX NSCLC),GI50 (MOLT-4 leukemia),TGI (MOLT-4 leukemia),GI50 (CCRF-CEM leukemia),TGI (CCRF-CEM leukemia)
COC(=O)C1=C(O)[C@H](C(=O)OC)C2(O)C(C(=O)OC)[C@H](c3ccc(OC(=O)C(C)c4ccccc4)cc3)C[C@@H]1[C@@H]2C(=O)OC (stereo not given in full),10.7 µM,20.6 µM,16.9 µM,> 50 µM,29.9 µM,> 50 µM,10.6 µM,31.4 µM,19.2 µM,> 50 µM,12.5 µM,29.2 µM,15.9 µM,45.1 µM,32.5 µM,> 50 µM,,,,
O=C(O)[C@H](Cc1c[nH]c2ccccc12)N1C(=O)c2ccccc2C1=O,,> 100 µM,,> 100 µM,,,,> 100 µM,,> 100 µM,,> 100 µM,,> 100 µM,,> 100 µM,> 100 µM,> 100 µM,> 100 µM,> 100 µM
N#CC(/C(CCC(=O)Nc1ccc(Cl)cc1)=N/NC(=O)c1cc2ccccc2cc1O)c1ccccc1 (stereo not given),,> 100 µM,,> 100 µM,,,,> 100 µM,,> 100 µM,,> 100 µM,,,,> 100 µM,,94.9 µM,,49.4 µM
CCOC(=O)C1SC(=Nc2ccc(OC)c(OC)c2)N=C1C (stereo not given),,> 100 µM,,67.9 µM,,,,> 100 µM,,> 100 µM,,> 100 µM,,32.3 µM,,> 100 µM,,,,59 µM
O=C/C1=C/C2=Cc3ccccc3C=C(/C=C(/C=O)C1)C2,,> 100 µM,,> 100 µM,,,,> 100 µM,,> 100 µM,,> 100 µM,,> 100 µM,,> 100 µM,,90.9 µM,,74.9 µM
O=C1C(=O)N(c2ccc(Cl)cc2)C(=O)C(=O)C1c1nc2ccccc2o1,,> 100 µM,,> 100 µM,,,,> 100 µM,,> 100 µM,,> 100 µM,,> 100 µM,,> 100 µM,,> 100 µM,,> 100 µM
NC(=NCc1ccccc1)C(N=Nc1ccccc1)C(=O)NCc1ccccc1 (stereo not given),11.5 µM,29.9 µM,16.5 µM,37.6 µM,,,2.04 µM,4.65 µM,18.1 µM,39.3 µM,5 µM,21.9 µM,,,4.49 µM,23.5 µM,5.53 µM,> 100 µM,3.54 µM,84.4 µM
O=C1C(Cl)=C(Nc2ccc(Nc3ccccc3)c(NC3=C(Cl)C(=O)c4ccccc4C3=O)c2)C(=O)c2ccccc21,6.71 µM,41.2 µM,3.46 µM,13.2 µM,,,,,,,19.6 µM,> 100 µM,,,11.4 µM,96.4 µM,,,3.71 µM,> 100 µM
CC(C)N(O)C(=N)c1ccccc1,,> 100 µM,,,,,,> 100 µM,,,,> 100 µM,,> 100 µM,,> 100 µM,,,,
Cc1nc2c(c(N3CCCc4ccccc43)n1)CCC2,< 0.01 µM,> 100 µM,< 0.01 µM,> 100 µM,< 0.01 µM,13.1 µM,< 0.01 µM,> 100 µM,< 0.01 µM,> 100 µM,< 0.01 µM,> 100 µM,,,< 0.01 µM,> 100 µM,< 0.01 µM,3.07 µM,< 0.01 µM,> 100 µM
